Test system: E3 ubiquitylation reaction (E1, E2, and E3)
Assay: E3 ligase assay using 5′-IAF-UBA1, inhibition assays
Format: biochemical, human
Settings: E1, E2, and E3 pre-incubated with various concentrations for 30 minutes at room temperature; detection with 5′-IAF-UBA1 and immunoblot; FIGS. 9A-D
Procedure: E3 ligase reactions contained 10 nM GST-Praja1, 500 nM 6× His-SUMO-CARP2 or 500 nM 6× His-SUMO-MuRF1 as E3s, 50 nM E1, 150 nM UbcH5c (E2), 500 ng Ubiquitin, 2 mM ATP, 50 mM Tris-HCl pH8.0, 5 mM MgCl2, 0.1 mM DTT. For measuring SCF^Atrogin-1 E3 ligase activity, the reaction was assembled essentially as described above except that the E3 ligase contained 6× His-SUMO-Atrogin-1, Cullin-1 (“Cul1”), Roc-1 (“Rbx-1”) and 6× His-Skp1 (250 nM each). In order to obtain large amounts of the Cul1-Rbx1 complex for the SCF complex, we used a procedure to overexpress the Cul1-Rbx1 complex in E. coli. Zheng, et al., Nature, 416(6882):703-9 (2002). The Cul1 gene was split into two halves (residues 1-410 and residues 411-776) and co-expressed with GST-tagged Rbx1 as three different polypeptide chains. A PCR product encoding Skp1 was generated using the primers 5′-[…]-3′ (SEQ ID NO:28) and 5′-[…]-3′ (SEQ ID NO:29) and human Skp1 cDNA as the template. […]
For inhibition assays, reactions containing E1, E2, and E3 were pre-incubated with various concentrations of NEM and ubistatin A for 30 minutes at room temperature before initiating the reaction by adding ubiquitin and ATP. […] The wells were washed with 1× PBS and readings were taken using a fluorescence plate reader with excitation and emission wavelengths of 485 nm and 535 nm, respectively. […]

inhibition of the E3 ubiquitylation assay | Structure (SMILES)
inhibited | O=C(Nc1ccc(/C=C/c2ccc(NC(=O)c3cc(S(=O)(=O)O)c4cccnc4c3O)cc2S(=O)(=O)O)c(S(=O)(=O)O)c1)c1cc(S(=O)(=O)O)c2cccnc2c1O [Ubistatin A]
inhibited | CCN1C(=O)C=CC1=O [NEM]
